In experiment [1] the test system is Resistant Plutella xylostella R4 (carries the RyR mutation G4946E). In words: Resistant Plutella xylostella R4 (Diamond back moth) larvicide L1, feeding/contact, artificial diet in 24-well plates. It counts as in vivo. Particulars: Plutella xylostella, 192 h, read-out: control of the resistant strain of Plutella xylostella R4. As for the experimental part: Resistant Plutella xylostella R4 (Diamond back moth) larvicide L1, feeding/contact 24-well microtiter plates with artificial diet were treated with aqueous test solutions prepared from 10′000 ppm DMSO stock solutions by pipetting. After drying, around 30 Plutella eggs were pipetted through a plastic stencil onto a gel blotting paper and the plate was closed with it. The samples were assessed for mortality in comparison to untreated samples 8 days after infestation.
Chlorantraniliprole was used as standard and a resistance factor of 242 was obtained for this strain
Plutella xylostella resistant strain R4 originated in the lab in 2021 from crossing the R1 strain with a lab-reared susceptible P. xylostella strain (SUS). R4 can be reared and tested on artificial diet and also carries the RyR mutation G4946E conferring resistance to diamides. The strain is selected approximately every two weeks with chlorantraniliprole. The following compounds, according to the present invention, gave at least 80% control of the resistant strain of Plutella xylostella R4 at 50 ppm or below: P11, P18, P26, P31, P33, P34, P36, P38, P42, P43, P46, P49, P50, P52, P56, P58, P60, P61, P63, P64, P65, P66, P67, P73, P76, P84, P97, P99, P102, P105.

Experiment [2] has as its system Plutella xylostella (Diamond back moth) ryanodine receptor, containing the G4946E resistance mutation. Put plainly: In vitro calcium fluorescence assay (Fluo-8 NW, FDSS) in human embryonic kidney cells expressing the ryanodine receptor. The following applies: table; EC50 (compound)/EC50 (cyantraniliprole); G4946E RyR in HEK cells. It counts as cell-based. As for the experimental part: Human embryonic kidney cells expressing the Plutella xylostella (Diamond back moth) ryanodine receptor, containing the G4946E resistance mutation, are loaded with Fluo-8 No Wash (NW) calcium-sensitive dye which responds by fluorescence to a change in intracellular calcium (e.g. stimulated by activation of ryanodine receptor). Test compounds are added in 10 rates to a 384-well plate containing dye-loaded cells and the fluorescent signal is measured using the Hamamatsu FDSS (Functional Drug Screening system). Dose-response curves are plotted to estimate the EC50. EC50 are normalized against an in-assay reference standard (cyantraniliprole) to address inter-assay variability. The ratio for a given compound is then obtained by the following formula:
REC50=EC50 (compound)/EC50 (cyantraniliprole).

Experiment [3] concerns Resistant Plutella xylostella R1 (multi-resistant larvae having the G4946E resistance mutation). In words: Resistant Plutella xylostella R1 (Diamond back moth) larvicide L3, feeding/contact, sprayed Chinese cabbage leaves. In kind it is in vivo. The following applies: Plutella xylostella, 96 h, read-out: control of the resistant strain of Plutella xylostella R1. How it is done:
Resistant Plutella xylostella R1 (Diamond back moth) larvicide L3, feeding/contact Chinese cabbage plants were sprayed with diluted test solutions in an application chamber. Cut off leaves were placed into petri dishes with wetted filter paper and infested 1 day after application with 10 L3 multi-resistant Plutella xylostella larvae having the G4946E resistance mutation.
Samples were assessed 4 days after infestation for mortality and growth regulation.
Chlorantraniliprole was used as standard and a resistance factor of 146 was obtained for this strain.
Plutella xylostella resistant strain R1 originally collected from Taiwan in 2012 that carries the RyR mutation G4946E conferring resistance to diamides. The strain is reared on cabbage plants (Brassica aleracea) and selected approximately every two weeks with chlorantraniliprole.

SMILES strings stand for the structures. Bounds are passed on as bounds.

Take `NC(=O)c1cc(I)cc(F)c1NC(=O)c1cc(Br)nn1-c1ncccc1Cl` [Compound P65, 5-bromo-N-(2-carbamoyl-6-fluoro-4-iodo-phenyl)-2-(3-chloro-2-pyridyl) pyrazole-3-carboxamide]: in experiment [1], the pest or weed control at 50 µg/mL was no less than 80%. In the case of `Cc1cc(Cl)cc(C(N)=O)c1NC(=O)c1cc(OCC(F)(F)C(F)(F)F)nn1-c1ncccc1Cl` [Compound P8, N-(2-carbamoyl-4-chloro-6-methyl-phenyl)-2-(3-chloro-2-pyridyl)-5-(2,2,3,3,3-pentafluoropropoxy)pyrazole-3-carboxamide], in experiment [2], the “REC50 (Compound of the invention)” value came to 0.14. In addition, the pest or weed control at 50 µg/mL in experiment [3] is no less than 80%. For `NC(=O)c1cc(I)cc(Cl)c1NC(=O)c1cc(C(F)(F)F)nn1-c1ncccc1Cl` [Compound P60, N-(2-carbamoyl-6-chloro-4-iodo-phenyl)-2-(3-chloro-2-pyridyl)-5-(trifluoromethyl)pyrazole-3-carboxamide], the pest or weed control at 50 µg/mL in experiment [1] was no less than 80%. In the case of `COc1cc(C(=O)Nc2c(C)cc(Cl)cc2C(N)=O)n(-c2ncccc2Cl)n1` [Compound P9, N-(2-carbamoyl-4-chloro-6-methyl-phenyl)-2-(3-chloro-2-pyridyl)-5-methoxy-pyrazole-3-carboxamide], the “REC50 (Compound of the invention)” value in experiment [2] is reported as 0.37. Besides, the pest or weed control at 50 µg/mL in experiment [3] is no less than 80%.

With `Cc1cc(I)cc(C(N)=O)c1NC(=O)c1cc(C(F)(F)F)nn1-c1ncccc1Cl` [Compound P27, N-(2-carbamoyl-4-iodo-6-methyl-phenyl)-2-(3-chloro-2-pyridyl)-5-(trifluoromethyl)pyrazole-3-carboxamide], the “REC50 (Compound of the invention)” value in experiment [2] is listed as 0.18. The pest or weed control at 50 µg/mL in experiment [3] was no less than 80%. With `NC(=O)c1cc(I)cc(Cl)c1NC(=O)c1cc(Br)nn1-c1ncccc1Cl` [Compound P61, 5-bromo-N-(2-carbamoyl-6-chloro-4-iodo-phenyl)-2-(3-chloro-2-pyridyl) pyrazole-3-carboxamide], the pest or weed control at 50 µg/mL in experiment [1] is no less than 80%. `Cc1cc(C#N)cc(C(N)=O)c1NC(=O)c1cc(I)nn1-c1ncccc1Cl` [Compound P66, N-(2-carbamoyl-4-cyano-6-methyl-phenyl)-2-(3-chloro-2-pyridyl)-5-iodo-pyrazole-3-carboxamide]: the pest or weed control at 50 µg/mL in experiment [1] is no less than 80%.

Consider `NC(=O)c1cc(Cl)cc(Br)c1NC(=O)c1cc(Cn2ncc(C(F)(F)F)n2)nn1-c1ncccc1Cl` [Compound P52, N-(2-bromo-6-carbamoyl-4-chloro-phenyl)-2-(3-chloro-2-pyridyl)-5-[[4-(trifluoromethyl)triazol-2-yl]methyl] pyrazole-3-carboxamide], for which the pest or weed control at 50 µg/mL in experiment [1] was no less than 80%. Same read-out and setting: with `Cc1cc(Cl)cc(C(N)=O)c1NC(=O)c1cc(Cn2nnc(-c3cccc(C(F)(F)F)c3)n2)nn1-c1ncccc1Cl` [Compound P97, N-(2-carbamoyl-4-chloro-6-methyl-phenyl)-2-(3-chloro-2-pyridyl)-5-[[5-[3-(trifluoromethyl)phenyl]tetrazol-2-yl]methyl]pyrazole-3-carboxamide] the figure was no less than 80%. As to `Cc1cc(Cl)cc(C(N)=O)c1NC(=O)c1cc(Br)nn1-c1ncccc1Cl` [Compound P24, 5-bromo-N-(2-carbamoyl-4-chloro-6-methyl-phenyl)-2-(3-chloro-2-pyridyl)pyrazole-3-carboxamide], in experiment [2], the “REC50 (Compound of the invention)” value is recorded as 0.18. Further, the pest or weed control at 50 µg/mL in experiment [3] is no less than 80%. Consider `NC(=O)c1cc(Br)cc(F)c1NC(=O)c1cc(C(F)(F)F)nn1-c1ncccc1Cl` [Compound P42, N-(4-bromo-2-carbamoyl-6-fluoro-phenyl)-2-(3-chloro-2-pyridyl)-5-(trifluoromethyl)pyrazole-3-carboxamide], for which, in experiment [1], the pest or weed control at 50 µg/mL is no less than 80%.

With `NC(=O)c1cc(Br)cc(Br)c1NC(=O)c1cc(C(F)(F)F)nn1-c1ncccc1Cl` [Compound P46, 2-(3-chloro-2-pyridyl)-N-(2,4-dibromo-6-carbamoyl-phenyl)-5-(trifluoromethyl)-pyrazole-3-carboxamide], in experiment [1], the pest or weed control at 50 µg/mL is no less than 80%. Besides, the “REC50 (Compound of the invention)” value in experiment [2] turned out to be 0.39. For `Cc1cc(Cl)cc(C(N)=O)c1NC(=O)c1cc(OC(F)F)nn1-c1ncccc1Cl` [Compound P21, N-(2-carbamoyl-4-chloro-6-methyl-phenyl)-2-(3-chloro-2-pyridyl)-5-(difluoromethoxy)pyrazole-3-carboxamide], in experiment [2], the “REC50 (Compound of the invention)” value came out at 0.25. Moreover, the pest or weed control at 50 µg/mL in experiment [3] was no less than 80%. As to `Cc1cc(Cl)cc(C(N)=O)c1NC(=O)c1cc(Cn2nnc(-c3ccccc3)n2)nn1-c1ncccc1Cl` [Compound P105, N-(2-carbamoyl-4-chloro-6-methyl-phenyl)-2-(3-chloro-2-pyridyl)-5-[(5-phenyltetrazol-2-yl)methyl] pyrazole-3-carboxamide], in experiment [1], the pest or weed control at 50 µg/mL was no less than 80%. As for `Cc1cc(Cl)cc(C(N)=O)c1NC(=O)c1cc(Br)nn1-c1ncccc1Br` [Compound P73, 5-bromo-2-(3-bromo-2-pyridyl)-N-(2-carbamoyl-4-chloro-6-methyl-phenyl)pyrazole-3-carboxamide], the pest or weed control at 50 µg/mL in experiment [1] was no less than 80%. For `Cc1cc(Cl)cc(C(N)=O)c1NC(=O)c1cc(OCC(F)(F)F)nn1-c1ncccc1Cl` [Compound P23, N-(2-carbamoyl-4-chloro-6-methyl-phenyl)-2-(3-chloro-2-pyridyl)-5-(2,2,2-trifluoroethoxy)pyrazole-3-carboxamide], the “REC50 (Compound of the invention)” value in experiment [2] stood at 0.17. Moreover, the pest or weed control at 50 µg/mL in experiment [3] was no less than 80%. On to `Cc1cc(Cl)cc(C(N)=O)c1NC(=O)c1cc(Cn2nnc(-c3ccc(F)cc3)n2)nn1-c1ncccc1Cl` [Compound P84, N-(2-carbamoyl-4-chloro-6-methyl-phenyl)-2-(3-chloro-2-pyridyl)-5-[[5-(4-fluorophenyl)tetrazol-2-yl]methyl] pyrazole-3-carboxamide], for which, in experiment [1], the pest or weed control at 50 µg/mL was no less than 80%. Regarding `Cc1cc(-c2nnn(Cc3cc(C(=O)Nc4c(C)cc(Cl)cc4C(N)=O)n(-c4ncccc4Cl)n3)n2)ccc1Cl` [Compound P99, N-(2-carbamoyl-4-chloro-6-methyl-phenyl)-5-[[5-(4-chloro-3-methyl-phenyl)tetrazol-2-yl]methyl]-2-(3-chloro-2-pyridyl)pyrazole-3-carboxamide], in experiment [1], the pest or weed control at 50 µg/mL was no less than 80%. Regarding `Cc1cc(Cl)cc(C(N)=O)c1NC(=O)c1cc(Cn2nnc(-c3ccc(F)c(Br)c3)n2)nn1-c1ncccc1Cl` [Compound P102, 5-[[5-(3-bromo-4-fluoro-phenyl)tetrazol-2-yl]methyl]-N-(2-carbamoyl-4-chloro-6-methyl-phenyl)-2-(3-chloro-2-pyridyl)pyrazole-3-carboxamide], the pest or weed control at 50 µg/mL in experiment [1] is no less than 80%. On the same count and under the same terms, under `Cc1cc(Cl)cc(C(N)=O)c1NC(=O)c1cc(OCC(F)F)nn1-c1ncccc1Cl` [Compound P56, N-(2-carbamoyl-4-chloro-6-methyl-phenyl)-2-(3-chloro-2-pyridyl)-5-(2,2-difluoroethoxy)pyrazole-3-carboxamide] stands no less than 80%. Take `NC(=O)c1cc(I)cc(F)c1NC(=O)c1cc(C(F)(F)F)nn1-c1ncccc1Cl` [Compound P64, N-(2-carbamoyl-6-fluoro-4-iodo-phenyl)-2-(3-chloro-2-pyridyl)-5-(trifluoromethyl)pyrazole-3-carboxamide]: the pest or weed control at 50 µg/mL in experiment [1] was no less than 80%. Besides, the “REC50 (Compound of the invention)” value in experiment [2] is reported as 0.69. Turning to `Cc1cc(C#N)cc(C(N)=O)c1NC(=O)c1cc(Br)nn1-c1ncccc1Cl` [Compound P30, 5-bromo-N-(2-carbamoyl-4-cyano-6-methyl-phenyl)-2-(3-chloro-2-pyridyl) pyrazole-3-carboxamide], the “REC50 (Compound of the invention)” value in experiment [2] is 0.39. In addition, the pest or weed control at 50 µg/mL in experiment [3] is no less than 80%.

For the compound `Cc1cc(Cl)cc(C(N)=O)c1NC(=O)c1cc(C(F)(F)F)nn1-c1ncccc1Cl` [Compound P25, N-(2-carbamoyl-4-chloro-6-methyl-phenyl)-2-(3-chloro-2-pyridyl)-5-(trifluoromethyl)pyrazole-3-carboxamide], the “REC50 (Compound of the invention)” value in experiment [2] was 0.18. The pest or weed control at 50 µg/mL in experiment [3] was no less than 80%.

The values above are taken from patent US20240308988A1, “Method For Controlling Diamide Resistant Pests and Compounds Therefor” (priority 2021, published 2024).
